In patent publication US20080045514A1 (Cytovia, Inc., priority 2006, published 2008):
Structures can show the parent of a compound that is named as a salt.

Assays:
Type in all cases: cell-based
[1] = tested on: human lymphoma cell line Raji; assay: Caspase cascade activation (EC50), Raji; conditions: Homo sapiens, RAJI cells, read-out: caspase potency (EC50) RAJI
Outline: (§1)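 Cells at 0.65×10^6 cells/mL exposed to compound at 0.016 to 10 μM final (1% DMSO) for 48 h at 37° C, 5% CO2. Caspase activity then read with 14 μM Ac-DEVD-R110 fluorogenic substrate in lysolecithin/DTT/PIPES pH 7.2 buffer at ex 485/em 530 nm after 3 h at room temperature. EC50 fitted sigmoidally from net RFU ratio to control.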

[2] = tested on: human Burkitt's lymphoma cell line Namalwa; assay: Caspase cascade activation (EC50), Namalwa; conditions: Homo sapiens, Burkitts lymphoma cell; Namalwa cells; caspase cascade activation; read-out: caspase potency (EC50) Namalwa
Outline: as §1

[3] = tested on: human colon carcinoma cell line HCT116; assay: Inhibition of cell proliferation (GI50), HCT116; conditions: Homo sapiens; HCT 116 cells, 48 h, CellTiter-Glo
Outline: (§2)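 CellTiter-Glo luminescence readout after 48 h compound exposure (1 nM–10 μM final), 37 °C, 5% CO2; seeding 4.4×10^4 cells/mL in RPMI-1640/DMSO. Untreated wells give maximal growth; wells read at 0.5 h give starting cell number; GI50 = 50% of net growth over baseline.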

[4] = tested on: human breast cancer cell line T-47D; assay: Inhibition of cell proliferation (GI50), T47D; conditions: Homo sapiens; T47D cells, 48 h, CellTiter-Glo
Description: (§3) Human breast cancer cell lines T-47D, human hepatocellular carcinoma cell line SNU398, human colon carcinoma cell line HCT116, human lung cancer cell line H1299, human leukemia cell line K562, human lymphoma cell line Raji, human B cell lymphoblastoid cell line Ramos, and human Burkitt's lymphoma cell line Namalwa were grown and harvested as in Example 100. An aliquot of […] of cells (4.4×10^4 cells/mL) was added to a well of a 96-well microtiter plate containing 5 μL of a 10% DMSO in RPMI-1640 media solution containing 10 nM to 100 μM of 3-(2-chlorophenyl)-6-(3,4-methylenedioxyphenyl)-7H-[1,2,4]triazolo[3,4-b][1,3,4]thiadiazine (1 nM to 10 μM final). An aliquot of 45 μL of cells was added to a well of a 96-well microtiter plate containing 5 μL of a 10% DMSO in RPMI-1640 media solution without compound as the control sample for maximal cell proliferation (LMax). The samples were mixed by agitation and then incubated at 37° C. for 48 h in a 5% CO2-95% humidity incubator. After incubation, the samples were removed from the incubator and 25 μL of CellTiter-Glo™ reagent (Promega) was added. The samples were mixed by agitation and incubated at room temperature for 10-15 min. Plates were then read using a luminescent plate reader (Model SPECTRAfluor Plus, Tecan) to give Ltest values.
(§4) The samples were mixed by agitation and then incubated at 37° C. for 0.5 h in a 5% CO2-95% humidity incubator. After incubation, the samples were removed from the incubator and 25 μL of CellTiter-Glo™ reagent (Promega) was added. The samples were mixed by agitation and incubated at […] 10-15 min at room temperature in a 5% CO2-95% humidity incubator. Fluorescence was read as above, (LStart) defining luminescence for initial cell number used as baseline in GI50 determinations.
(§5) Calculation: GI50 (dose for 50% inhibition of cell proliferation) is the concentration where [(Ltest−LStart)/(LMax−LStart)]=0.5.

[5] = tested on: human lymphoma cell line Raji; assay: Inhibition of cell proliferation (GI50), Raji; conditions: Homo sapiens; Raji cells, 48 h, CellTiter-Glo
Outline: as §2

[6] = tested on: human cancer cell line H1299; assay: Caspase cascade activation (EC50), H1299; conditions: NCI-H1299, H1299 cells, read-out: caspase potency (EC50) H1299
Outline: as §1

[7] = tested on: human Burkitt's lymphoma cell line Namalwa; assay: Inhibition of cell proliferation (GI50), Namalwa; conditions: Homo sapiens, Burkitts lymphoma cell; Namalwa cells, 48 h, CellTiter-Glo
Outline: as §2

[8] = tested on: human hepatocellular carcinoma cell line SNU398; assay: Caspase cascade activation (EC50), SNU398; conditions: Homo sapiens, SNU-398; SNU398 cells; caspase cascade activation; read-out: caspase potency (EC50) SNU398
Outline: as §1

[9] = tested on: human colon carcinoma cell line HCT116; assay: Caspase cascade activation (EC50), HCT116; conditions: Homo sapiens, HCT-116; HCT116 cells; caspase cascade activation; read-out: caspase potency (EC50) HCT116
Outline: as §1

[10] = tested on: human B cell lymphoblastoid cell line Ramos; assay: Caspase cascade activation (EC50), Ramos; conditions: Homo sapiens, RAMOS cells, read-out: caspase potency (EC50) RAMOS
Outline: as §1

[11] = tested on: human lung cancer cell line H1299; assay: Inhibition of cell proliferation (GI50), H1299; conditions: NCI-H1299, H1299 cells, 48 h, CellTiter-Glo
Description: as §3, §4, §5

[12] = tested on: human leukemia cell line K562; assay: Inhibition of cell proliferation (GI50), K562; conditions: Homo sapiens; K562 cells, 48 h, CellTiter-Glo
Outline: as §2

[13] = tested on: human breast cancer cell line T-47D; assay: Caspase cascade activation (EC50), T-47D; conditions: Homo sapiens; T47D cells; caspase cascade activation; read-out: caspase potency (EC50) T47D
Outline: as §1

[14] = tested on: human B cell lymphoblastoid cell line Ramos; assay: Inhibition of cell proliferation (GI50), Ramos; conditions: Homo sapiens; Ramos cells, 48 h, CellTiter-Glo
Outline: as §2

[15] = tested on: human hepatocellular carcinoma cell line SNU398; assay: Inhibition of cell proliferation (GI50), SNU398; conditions: Homo sapiens; SNU 398 cells, 48 h, CellTiter-Glo
Description: as §3, §4, §5

| EC50 [1] [nM] | EC50 [2] [nM] | GI50 [3] [nM] | GI50 [4] [nM] | GI50 [5] [nM] | EC50 [6] [nM] | GI50 [7] [nM] | EC50 [8] [nM] | EC50 [9] [nM] | EC50 [10] [nM] | GI50 [11] [nM] | GI50 [12] [nM] | EC50 [13] [nM] | GI50 [14] [nM] | GI50 [15] [nM] | SMILES |
| --- | --- | --- | --- | --- | --- | --- | --- | --- | --- | --- | --- | --- | --- | --- | --- |
| 84 | 58 | 2120 | 144 | 1500 | 142 | 1500 | 82 | 130 | 63 | 42 | 31 | 315 | 21 | – | COc1ccc(C2=Nn3c(nnc3-c3ccc(Cl)cc3)SC2)cc1 [D, 3-(4-Chlorophenyl)-6-(4-methoxyphenyl)-7H-[1,2,4]triazolo[3,4-b][1,3,4]thiadiazine] |
| 57 | 31 | 15 | 17 | 27 | – | 66 | 25 | 60 | 30 | – | 43 | 146 | 16 | 150 | COc1ccccc1-c1nnc2n1N=C(c1ccc(C)cc1)CS2 [Example 8, 3-(2-Methoxyphenyl)-6-(4-methylphenyl)-7H-[1,2,4]triazolo[3,4-b][1,3,4]thiadiazine hydrochloride] |
| 15 | 7 | 34 | 28 | – | – | 6 | 6 | 17 | 7 | – | – | 32 | – | 1 | COc1ccc(C2=Nn3c(nnc3-c3ccc(OC)cc3OC)SC2)cc1 [Example 18, 3-(2,4-Dimethoxyphenyl)-6-(4-methoxyphenyl)-7H-[1,2,4]triazolo[3,4-b][1,3,4]thiadiazine hydrochloride] |
| 29 | 17 | 67 | 48 | – | – | 12 | 24 | 32 | 20 | – | – | 35 | – | 12 | CCOc1ccccc1-c1nnc2n1N=C(c1ccc(C)cc1)CS2 [Example 19, 3-(2-Ethoxyphenyl)-6-(4-methylphenyl)-7H-[1,2,4]triazolo[3,4-b][1,3,4]thiadiazine hydrobromide] |
| 95 | 55 | 99 | 373 | – | – | 13 | – | – | 36 | – | – | – | – | 11 | COc1ccc(C2=Nn3c(nnc3-c3cc(OC)cc(OC)c3)SC2)cc1 [Example 20, 3-(3,5-Dimethoxyphenyl)-6-(4-methoxyphenyl)-7H-[1,2,4]triazolo[3,4-b][1,3,4]thiadiazine hydrobromide] |
| 434 | 280 | 680 | 185 | – | – | 176 | – | – | 272 | – | – | – | – | 20 | CCN(CC)c1ccc(C2=Nn3c(nnc3-c3cc(OC)c(OC)c(OC)c3)SC2)cc1 [Example 21, 6-(4-Diethylaminophenyl)-3-(3,4,5-trimethoxyphenyl)-7H-[1,2,4]triazolo[3,4-b][1,3,4]thiadiazine hydrochloride] |
| 706 | – | 2340 | 1370 | 2890 | 1310 | 2870 | 1220 | > 10000 | 925 | 1010 | 453 | 1320 | 1390 | – | CCOc1cccc(-c2nnc3n2N=C(c2ccc(O)c(O)c2)CS3)c1 [Example C1, 3-(3-Ethoxyphenyl)-6-(3,4-dihydroxyphenyl)-7H-[1,2,4]triazolo[3,4-b][1,3,4]thiadiazine] |
| 570 | 556 | – | 2650 | – | 2420 | – | 1310 | 2480 | 586 | 1940 | – | 2220 | – | – | COc1ccc(C2=Nn3c(nnc3-c3ccc(OC)c(OC)c3)SC2)cc1OC [Example N1, 3-(3,4-Dimethoxyphenyl)-6-(3,4-dimethoxyphenyl)-7H-[1,2,4]triazolo[3,4-b][1,3,4]thiadiazine] |
| 221 | 261 | – | 375 | – | 1230 | – | 243 | 471 | 262 | 314 | – | 345 | – | – | Cc1cccc(-c2nnc3n2N=C(c2ccc4c(c2)OCO4)CS3)c1 [Example T, 3-(3-Methylphenyl)-6-(3,4-methylenedioxyphenyl)-7H-[1,2,4]triazolo[3,4-b][1,3,4]thiadiazine] |
| 710 | 592 | 5900 | 1500 | 3000 | – | 2550 | 506 | 599 | 523 | – | 1870 | 431 | 1290 | 294 | c1cc2c(cc1C1=Nn3c(nnc3-c3n[nH]c4c3CCC4)SC1)OCO2 [Example W2] |
| 393 | 265 | – | 97 | – | 1420 | – | 273 | 849 | 481 | 307 | – | 513 | – | – | Clc1ccc(-c2nnc3n2N=C(c2ccc4c(c2)OCO4)CS3)cc1 [G, 3-(4-Chlorophenyl)-6-(3,4-methylenedioxyphenyl)-7H-[1,2,4]triazolo[3,4-b][1,3,4]thiadiazine] |
| 479 | 267 | – | 2620 | – | 697 | – | 316 | 578 | 272 | 667 | – | 5130 | – | – | COc1ccc(C2=Nn3c(nnc3-c3ccccc3C)SC2)cc1OC [K, 3-(2-Methylphenyl)-6-(3,4-dimethoxyphenyl)-7H-[1,2,4]triazolo[3,4-b][1,3,4]thiadiazine] |
| 502 | 278 | – | 2540 | – | 755 | – | 367 | 559 | 278 | 510 | – | 2400 | – | – | COc1ccc(C2=Nn3c(nnc3-c3ccccc3Cl)SC2)cc1OC [N, 3-(2-Chlorophenyl)-6-(3,4-dimethoxyphenyl)-7H-[1,2,4]triazolo[3,4-b][1,3,4]thiadiazine] |
| 322 | – | 489 | 135 | 299 | 552 | 314 | 164 | 243 | 175 | 161 | 178 | 313 | 141 | – | COc1ccccc1-c1nnc2n1N=C(c1ccc(Br)cc1)CS2 [W, 3-(2-Methoxyphenyl)-6-(4-bromophenyl)-7H-[1,2,4]triazolo[3,4-b][1,3,4]thiadiazine] |
